Values of other authors as cited in patent publication US20140328949A1, “ELECTROCHEMICALLY GENERATED ANTIMICROBIAL SODIUM HYDROXIDE SOLUTION” (priority 2013, published 2014).

Tested on: hairy foot warts
Conditions: for efficacy of footbath treatment against hairy foot warts: footbaths, formalin 5%, zinc sulfate 3× footbaths, spread and mild lesions

## C=O [formalin]
  efficacy of footbath treatment against hairy foot warts: effective in controlling hairy foot wart outbreaks

## O=S(=O)([O-])[O-].[Zn+2] [Zinc sulfate]
3× footbaths, 1990 study
  efficacy against more serious hairy foot wart lesions: ineffective
  efficacy of footbath treatment against hairy foot warts: effective at controlling the spread of hairy foot warts and treating mild lesions

## O=S(=O)([O-])[O-].[Cu+2] [copper sulfate, Copper sulfate]
  efficacy of footbath treatment against hairy foot warts: not an effective treatment
